Data as given in publication PMC6661771, “Indole hybridized diazenyl derivatives: synthesis, antimicrobial activity, cytotoxicity evaluation and docking studies” (BMC Chemistry, 2019).
Values after ≈ are worked out from the molar mass of the structure shown. Read-outs that look alike come from different tables or passages of the source.

Experiments:
E. coli [1] = test: MIC by tube dilution method; type: cell-based; conditions: 24 h at 37 °C
S. aureus [2] = test: MIC by tube dilution method; type: cell-based; conditions: Staphylococcus aureus, 24 h at 37 °C, read-out: MIC
S. enterica [3] = test: MIC by tube dilution method; type: cell-based; conditions: Salmonella enterica, 24 h, 24 h at 37 °C, read-out: MIC
B. subtilis [4] = test: MIC by tube dilution method; type: cell-based; conditions: Bacillus subtilis, 24 h at 37 °C, read-out: MIC
K. pneumonia [5] = test: MIC by tube dilution method; type: cell-based; conditions: 24 h at 37 °C
A. niger [6] = test: MIC by tube dilution method; type: cell-based; conditions: Aspergillus niger, 168 h, 7 days at 25 °C, read-out: MIC
A. fumigatus [7] = test: MIC by tube dilution method; type: cell-based; conditions: Aspergillus fumigatus, 168 h, 7 days at 25 °C, read-out: MIC
E. coli [8] = test: Minimum bactericidal concentration (MBC); type: cell-based; conditions: Escherichia coli
S. aureus [9] = test: Minimum bactericidal concentration (MBC); type: cell-based; conditions: Staphylococcus aureus
S. enterica [10] = test: Minimum bactericidal concentration (MBC); type: cell-based; conditions: Salmonella enterica, read-out: MBC/MFC
Protocol: After MIC assessment, the indole derivatives (DS1–DS21), were additionally evaluated for MBC and MFC values. […] The 10–15 ml of nutrient agar and Sabouraud dextrose agar was added to the petri plates for bacterial and fungal samples respectively with gentle shaking of plates in order to mix the culture throughout the media. Allowed the media to solidify. The petri plates were then incubated for the predefined time and temperature as referenced already for bacterial and fungal cultures respectively. The plates were then investigated visually for the development of microbial growth. The MBC and MFC were stated as the minimum concentration of the compounds in aliquots showing no visual growth after incubation.

B. subtilis [11] = test: Minimum bactericidal concentration (MBC); type: cell-based; conditions: Bacillus subtilis
A. niger [12] = test: Minimum fungicidal concentration (MFC); type: cell-based; conditions: Aspergillus niger, read-out: MBC/MFC
A. fumigatus [13] = test: Minimum fungicidal concentration (MFC); type: cell-based; conditions: Aspergillus fumigatus, read-out: MBC/MFC
HCT 116 = test: MTT cell proliferation assay; type: cell-based; conditions: Homo sapiens, HCT-116, 48 h, HCT 116 colon cancer, 48 h of drug treatment
Protocol: (§1) The cell lines used in study were initially procured from the National Centre for Cell Sciences (NCCS), Pune, India, and maintained in DMEM. The cell line was cultured in 25 cm^2 tissue culture flask with DMEM supplemented with 10% FBS, sodium bicarbonate, L-glutamine, and antibiotic solution containing: streptomycin (100 μg/ml), penicillin (100 U/ml). Cultured cell line was kept at 37 °C in a humidified 5% CO2 incubator (VWR, USA).
(§2) The compounds found to have good antimicrobial potential were then screened for their cytotoxicity using MTT […]) assay. 1 × 10^4 cells/well were seeded in 100 µl DMEM/MEM, supplemented with 10% FBS in each well of 96-well microculture plates and incubated for 24 h at 37 °C in a CO2 incubator. After incubation, all the prepared/synthesized compounds were added to the cells at 10, 25, 50 and 100 µg concentrations for 48 h. After 48 h of drug treatment, 10 µl MTT (5 mg/ml) was added to each well and the plates were further incubated for 4 h. Then the supernatant from each well was carefully removed, formazan crystals were dissolved in 100 µl of DMSO and absorbance at 570 nm wavelength was recorded on an ELISA reader. The IC50 value was calculated using the linear regression equation i.e. Y = Mx + C. Here, Y = 50, M and C values were derived from the viability graph. The assay was performed in triplicate.

K562 = test: MTT cell proliferation assay; type: cell-based; conditions: Homo sapiens, K562 leukemia, 48 h of drug treatment
Protocol: as §1, §2

MDA MB 231 = test: MTT cell proliferation assay; type: cell-based; conditions: MDA MB 231 breast cancer, 48 h of drug treatment
Protocol: as §1, §2

HEK-293 = test: MTT cell proliferation assay, normal cells; type: cell-based; conditions: Homo sapiens, HEK293, HEK-293 normal cells, 48 h of drug treatment
Protocol: as §1, §2

K. pneumonia [14] = test: Minimum bactericidal concentration (MBC); type: cell-based; conditions: Klebsiella pneumoniae
[15] = Escherichia coli, 24 h, read-out: MIC
[16] = Klebsiella pneumoniae, 24 h, read-out: MIC
[17] = Homo sapiens, MDA-MB-231, 48 h, read-out: IC50

Compound | MIC (E. coli [1]; [15]) | MIC (S. aureus [2]) | MIC (S. enterica [3]) | MIC (B. subtilis [4]) | MIC (K. pneumonia [5]; [16]) | MIC (A. niger [6]) | MIC (A. fumigatus [7]) | MBC (E. coli [8]) | MBC (S. aureus [9]) | MBC (S. enterica [10]; S. enterica, MBC) | MBC (B. subtilis [11]) | MFC (A. niger [12]) | MFC (A. fumigatus [13]) | IC50 (HCT 116) | IC50 (K562) | IC50 (MDA MB 231; [17]) | IC50 (HEK-293) | melting point | MBC (K. pneumonia [14]) | also measured
C/C(=N/c1cc(Cl)ccc1Cl)c1ccc(/N=N\c2c[nH]c3ccc([N+](=O)[O-])cc23)cc1 [DS-10, (Z)-2,5-Dichloro-N-(1-(4-((Z)-(5-nitro-1H-indol-3-yl)diazenyl)phenyl)ethylidene)aniline] | 1.95 µg/mL (≈ 4.31 µM) | 62.5 µg/mL (≈ 138 µM) | 31.2 µg/mL (≈ 69.1 µM) | 62.5 µg/mL (≈ 138 µM) | 3.9 µg/mL (≈ 8.62 µM) | 62.5 µg/mL (≈ 138 µM) | 125 µg/mL (≈ 276 µM) | 31.2 µg/mL (≈ 69.1 µM) | 125 µg/mL (≈ 276 µM) | 62.5 µg/mL (≈ 138 µM) | 125 µg/mL (≈ 276 µM) | 125 µg/mL (≈ 276 µM) | 125 µg/mL (≈ 276 µM) | 204.9 ± 1.62 µg/mL (≈ 453 µM) | 199 ± 3.13 µg/mL (≈ 439 µM) | 130 ± 3.51 µg/mL (≈ 287 µM) | 274 ± 4.58 µg/mL (≈ 606 µM) | 210 to 215 °C |  | 
CCOC(=O)c1c(/N=C(/C)c2ccc(/N=N\c3c[nH]c4ccccc34)cc2)sc2c1CCCC2 [DS-2, Ethyl 2-((Z)-(1-(4-((Z)-(1H-indol-3-yl)diazenyl)phenyl)ethylidene)amino)-4,5,6,7-tetrahydrobenzo[b]thiophene-3-carboxylate] | 15.6 µg/mL (≈ 33.2 µM) | 62.5 µg/mL (≈ 133 µM) | 15.6 µg/mL (≈ 33.2 µM) | 31.2 µg/mL (≈ 66.4 µM) | 31.2 µg/mL (≈ 66.4 µM) | 62.5 µg/mL (≈ 133 µM) | 15.6 µg/mL (≈ 33.2 µM) | 16.2 µg/mL (≈ 34.5 µM) | 125 µg/mL (≈ 266 µM) |  | 125 µg/mL (≈ 266 µM) | 125 µg/mL (≈ 266 µM) | 62.5 µg/mL (≈ 133 µM) | 117 ± 4.28 µg/mL (≈ 248 µM) | 140 ± 4.4 µg/mL (≈ 298 µM) | 57.6 ± 3.68 µg/mL (≈ 122 µM) |  | 260 to 265 °C | 62.5 µg/mL (≈ 133 µM) | MBC (S. enterica [10]): 15.6 µg/mL (≈ 33.2 µM)
C/C(=N/c1ccc(C(=O)O)cc1)c1ccc(/N=N\c2c[nH]c3ccccc23)cc1 [DS-14, 4-((Z)-(1-(4-((Z)-(1H-Indol-3-yl)diazenyl)phenyl)ethylidene)amino)benzoic acid] | 1.95 to 3.9 µg/mL (≈ 5.1 to 10.2 µM) | 62.5 µg/mL (≈ 163 µM) | 1.95 to 3.9 µg/mL (≈ 5.1 to 10.2 µM) | 31.2 µg/mL (≈ 81.7 µM) | 1.95 to 3.9 µg/mL (≈ 5.1 to 10.2 µM) | 62.5 µg/mL (≈ 163 µM) | 31.2 µg/mL (≈ 81.7 µM) |  | 62.5 µg/mL (≈ 163 µM) | 7.81 µg/mL (≈ 20.4 µM) | 62.5 µg/mL (≈ 163 µM) | 125 µg/mL (≈ 327 µM) | 125 µg/mL (≈ 327 µM) |  | 112 ± 3.64 µg/mL (≈ 294 µM) | 19 to 65 µg/mL (≈ 49.7 to 170 µM) | 244 ± 3.78 µg/mL (≈ 638 µM) | 205 to 210 °C | 3.9 to 7.81 µg/mL (≈ 10.2 to 20.4 µM) | MIC (E. coli [1]): 3.90 µg/mL (≈ 10.2 µM); MIC (K. pneumonia [5]): 1.95 µg/mL (≈ 5.1 µM); IC50 (MDA MB 231): 19.10 ± 1.43 µg/mL (≈ 49.9 µM)
C/C(=N/c1nc2ccccc2s1)c1ccc(/N=N\c2c[nH]c3ccc([N+](=O)[O-])cc23)cc1 [DS-21, (Z)-N-(1-(4-((Z)-(5-Nitro-1H-indol-3-yl)diazenyl)phenyl)ethylidene)benzo[d]thiazol-2-amine] | 3.9 µg/mL (≈ 8.85 µM) | 62.5 µg/mL (≈ 142 µM) | 31.2 µg/mL (≈ 70.9 µM) | 31.2 µg/mL (≈ 70.9 µM) | 3.9 µg/mL (≈ 8.85 µM) | 125 µg/mL (≈ 284 µM) | 125 µg/mL (≈ 284 µM) |  | 62.5 µg/mL (≈ 142 µM) | 31.2 µg/mL (≈ 70.9 µM) | 62.5 µg/mL (≈ 142 µM) | 125 µg/mL (≈ 284 µM) | 125 µg/mL (≈ 284 µM) | 125 ± 1.33 µg/mL (≈ 283 µM) | 158 ± 3.73 µg/mL (≈ 359 µM) | 49.3 ± 4.15 µg/mL (≈ 112 µM) | 142 ± 3.25 µg/mL (≈ 322 µM) | 130 to 135 °C |  | 
C/C(=N/CCNc1cccc2ccccc12)c1ccc(/N=N\c2c[nH]c3ccccc23)cc1 [DS-20, (Z)-N1-(1-(4-((Z)-(1H-Indol-3-yl)diazenyl)phenyl)ethylidene)-N2-(naphthalen-1-yl)ethane-1,2-diamine] | 1.95 µg/mL (≈ 4.52 µM) | 125 µg/mL (≈ 290 µM) | 15.6 µg/mL (≈ 36.2 µM) | 125 µg/mL (≈ 290 µM) | 3.9 µg/mL (≈ 9.04 µM) | 62.5 µg/mL (≈ 145 µM) | 62.5 µg/mL (≈ 145 µM) |  | 62.5 µg/mL (≈ 145 µM) | 31.2 µg/mL (≈ 72.4 µM) | 125 µg/mL (≈ 290 µM) | 125 µg/mL (≈ 290 µM) | 125 µg/mL (≈ 290 µM) |  | 136 ± 4.74 µg/mL (≈ 315 µM) | 19 to 65 µg/mL (≈ 44 to 151 µM) | 233 ± 4.68 µg/mL (≈ 539 µM) | 110 to 115 °C | 15.6 µg/mL (≈ 36.2 µM) | IC50 (MDA MB 231): 20.95 ± 1.93 µg/mL (≈ 48.5 µM)
C/C(=N/c1c(C)n(C)n(-c2ccccc2)c1=O)c1ccc(/N=N\c2c[nH]c3ccc([N+](=O)[O-])cc23)cc1 [DS-6, 1,5-Dimethyl-4-((Z)-(1-(4-((Z)-(5-nitro-1H-indol-3-yl)diazenyl)phenyl)ethylidene)amino)-2-phenyl-1H-pyrazol-3(2H)-one] | 1.95 µg/mL (≈ 3.95 µM) | 31.2 µg/mL (≈ 63.3 µM) | 31.2 µg/mL (≈ 63.3 µM) | 31.2 µg/mL (≈ 63.3 µM) | 7.81 µg/mL (≈ 15.8 µM) | 62.5 µg/mL (≈ 127 µM) | 31.2 µg/mL (≈ 63.3 µM) | 3.9 to 7.81 µg/mL (≈ 7.9 to 15.8 µM) | 31.2 µg/mL (≈ 63.3 µM) | 31.2 µg/mL (≈ 63.3 µM) | 62.5 µg/mL (≈ 127 µM) | 125 µg/mL (≈ 253 µM) | 125 µg/mL (≈ 253 µM) | 139 ± 4.29 µg/mL (≈ 282 µM) | 188 ± 1.94 µg/mL (≈ 380 µM) | 119 ± 1.92 µg/mL (≈ 241 µM) | 257.8 ± 0.57 µg/mL (≈ 522 µM) | 170 to 175 °C |  | 
C/C(=N/c1nnc(-c2ccc([N+](=O)[O-])cc2Cl)s1)c1ccc(/N=N\c2c[nH]c3ccc([N+](=O)[O-])cc23)cc1 [DS-3, (Z)-5-(2-Chloro-4-nitrophenyl)-N-(1-(4-((Z)-(5-nitro-1H-indol-3-yl)diazenyl)phenyl)ethylidene)-1,3,4-thiadiazol-2-amine] | 3.9 µg/mL (≈ 7.13 µM) | 62.5 µg/mL (≈ 114 µM) | 31.2 µg/mL (≈ 57.1 µM) | 31.2 µg/mL (≈ 57.1 µM) | 1.95 µg/mL (≈ 3.57 µM) | 62.5 µg/mL (≈ 114 µM) | 15.6 µg/mL (≈ 28.6 µM) | 31.2 µg/mL (≈ 57.1 µM) | 62.5 µg/mL (≈ 114 µM) | 31.2 µg/mL (≈ 57.1 µM) | 62.5 µg/mL (≈ 114 µM) | 125 µg/mL (≈ 229 µM) | 62.5 µg/mL (≈ 114 µM) | 110 ± 2.55 µg/mL (≈ 201 µM) | 146 ± 2.11 µg/mL (≈ 267 µM) | 46 ± 1.83 µg/mL (≈ 84 µM) | 311.2 ± 1.76 µg/mL (≈ 569 µM) | 155 to 160 °C | 31.2 µg/mL (≈ 57.1 µM) | 
